Reference: patent US8981111B2 (priority 2008, dated 2015)

Assay: log P (HPLC/MS data of the preparation examples)
Settings: for log p: linear gradient 10% to 95% acetonitrile; for chromatographic logP: HCOOH (formic acid)
[1] = HPLC (LC-MS) method [b]: pH 2.7, 0.1% formic acid in water and acetonitrile, EEC directive 79/831 Annex V.A8
[2] = method [b]: LC-MS at pH 2.7, 0.1% formic acid in water / acetonitrile
[3] = LC-MS, method [b]: pH 2.7 with 0.1% formic acid in water and acetonitrile

In the case of “2-{6-[({[(1-methyl-1H-imidazol-5-yl)(3-thienyl)methylene]amino}oxy)-methyl]pyridin-2-yl}-1H-isoindole-1,3(2H)-dione [Example 491]”, the “log P(HCOOH)” value (HCOOH) is reported as 1.73 and the log p [1] is reported as 3.67^[b].
With `Cc1nc(C(=NOCc2cccc(N)n2)c2ccccc2)cs1` (single isomer, unassigned) [Example 174] the log p [2] was 1.47^[b].
For `Cn1ncnc1C(=NOCc1cccc(NC(=O)Cc2cccc(F)c2)n1)c1ccccc1` [Example 235], the log p [2] was 3.15^[b].
Work on `Cc1cnc(C)c(C(=NO)c2ccccc2)n1` [1-(3,6-dimethylpyrazin-2-yl)-N-hydroxy-1-phenylmethanimine] yielded a chromatographic logP of 1.7.
For `CCCCS(=O)(=O)N(c1cccc(CON=C(c2cccc(C)c2)c2ncnn2C)n1)S(=O)(=O)CCCC` [Example 79], the log p [3] was 4.49^[b].
In the case of `Cn1ccnc1C(=NOCc1cccc(NC(=O)CCC2CCCC2)n1)c1cccc(F)c1` [Example 284], the log p [3] is reported as 3.44^[b].
For `Cc1cccc(C(=NOCc2cccc(NC(=O)Cc3ccccc3)n2)c2ncnn2C)c1` [Example 31], the log p [3] was 3.35^[b].
For `CCC(C(=O)Nc1cccc(CON=C(c2cccs2)c2cncn2C)n1)c1ccccc1` (stereo not drawn) [Example 455], the log p [1] was 2.2^[b].
For `CCCCCC(=O)NCc1cccc(CON=C(c2ccccc2)c2ncnn2C)n1` [Example 140], the log p [2] was 2.62^[b].
With `CCCCCC(=O)Nc1cccc(CON=C(c2cccc(C)c2)c2ncnn2C)n1` [Example 48] the log p [3] was 3.55^[b].
For `Cc1cnc(C)c(C(C#N)c2ccccc2)n1` (stereo not drawn) [(3,6-dimethylpyrazin-2-yl)(phenyl)acetonitrile], the chromatographic logP was 2.28.
With `CCCC(=O)Nc1cccc(CON=C(c2ccsc2)c2cncn2C)n1` [Example 437] the log p [1] was 1.52^[b].
With `Cn1cncc1C(=NOCc1cccc(N)n1)c1ccsc1` (single isomer, unassigned) [Example 418] the log p [1] was 0.39^[b].
For `Cc1ccccc1C(=NOCc1cccc(N)n1)c1ncnn1C` [Example 6], the log p [3] was 0.96^[b].
With `Cn1nc(C(=NOCc2cccc(NC(=O)Cc3ccccc3)n2)c2ccccc2)n(C)c1=O` [Example 149] the log p [2] was 2.94^[b].
For `CCCCCOC(=O)Nc1cccc(CON=C(c2ccc(C)cc2)c2ncnn2C)n1` [Example 44], the log p [3] was 4.31^[b].
In the case of `Cn1ccnc1C(=NOCc1cccc(NC(=O)CCC2CCCCC2)n1)c1cccc(F)c1` [Example 285], the log p [3] is reported as 3.92^[b].
In the case of `Nc1ccnc(CON=C(c2ccsc2)c2snc(Cl)c2Cl)n1` [Example 382], the log p [3] is reported as 1.86^[b].
For `Cn1ccnc1C(=NOCc1nccc(NC(=O)CCc2ccccc2)n1)c1ccccc1` [Example 64], the log p [3] was 2.21^[b].
`CON(C)C(=O)c1cccs1` [N-methoxy-N-methylthiophene-2-carboxamide] showed a chromatographic logP of 1.44.
In the case of `CCCCCC(=O)Nc1nc(CON=C(c2ncc(C(F)(F)F)cc2Cl)c2ncnn2C)cs1` [Example 479], the log p [1] is reported as 3.6^[b].
For `CCCCC(=O)Nc1cccc(CON=C(c2ccccc2)c2cncn2C)n1` [Example 258], the log p [2] was 1.82^[b].
In the case of `Cn1ncnc1C(=NOCc1cccc(N2C(=O)c3ccccc3C2=O)n1)c1cccs1` [Example 416], the log p [1] is reported as 2.64^[b].
With `COCCC(=O)Nc1cccc(CON=C(c2cccc(F)c2)c2nccn2C)n1` [Example 277] the log p [2] was 1.69^[b].
In the case of `Cn1nc(C(F)(F)F)nc1C(=NOCc1cccc(NC(=O)Cc2ccccc2)n1)c1ccccc1` [Example 175], the log p [2] is reported as 4.24^[b].
For `CCCCS(=O)(=O)Nc1cccc(CON=C(c2cccc(C)c2)c2ncnn2C)n1` [Example 75], the log p [3] was 3.04^[b].
With `Cn1cncc1C(=NOCc1cccc(N2C(=O)c3ccccc3C2=O)n1)c1cccs1` [Example 420] the log p [1] was 1.66^[b].
In the case of `CSCCC(=O)Nc1cccc(CON=C(c2ccccc2)c2nccn2C)n1` [Example 271], the log p [2] is reported as 1.9^[b].
With “N-(cyclopropylcarbonyl)-N-(2-{[({[2-(cyclopropylcarbonyl)-1-methyl-1H-imidazol-5-yl](phenyl)methylene}amino)oxy]methyl}pyrimidin-4-yl)cyclopropanecarboxamide [Example 312]” the log p [3] was 2.22^[b].
